These results are taken from patent US20240035063A1, “SYNTHETIC MIXED CULTURE RESEMBLING A SKIN MICROBIOME” (Evonik Operations GmbH, priority 2020, published 2024).

Experiment [1] relates to synthetic mixed culture resembling a skin microbiome (core microbiome model, strain mix ratio 1). The experiment can be described thus: Aerobic cultivation of core skin microbiome model (ratio 1) with test compound, 16S rRNA sequencing. Format: cell-based. The conditions noted are these: ratio 1, compound added at T=0, T=28 h. The procedure: Individual bacterial strains are inoculated from cryocultures to initiate preculture growth. BHI Media (110493; Merck KGaA, 64293 Darmstadt) or DSMZ media 92 or DSMZ media 535 media according to the recommendations of the German Collection of Microorganisms and Cell Cultures GmbH are used for preculture cultivation. At the end of cultivation strains are diluted to result in an optical density of OD600=1 using BHI media. These single strain cultures are mixed in defined strain ratios depending on their growth properties. Cultivation is carried out using a BioLector [[…]-labs; Arnold-Sommerfeld-Ring 2, 52499 Baesweiler] small scale test system with MTP-48-BOH 1 plates. 100 μl of strain mix, according to the ratios in table 2 are added to 1 ml BHI media in resulting in a starting OD600 of 0.091. Cultivation is done at 37° C., a shaking frequency of 600 rpm and relative humidity of 85% for 28 h until the process is stopped. At the end of cultivation OD600 is determined, and the remaining culture is centrifuged at 4° C., 5000 rpm and 5 min in an Eppendorf table centrifuge. The supernatant is discarded, and the pellet is stored at -20° C. Genomic DNA is extracted from these samples using the DNeasy PowerSoil Pro Kit [Qiagen GmbH, QIAGEN Strasse 1, 40724 Hilden]. DNA samples are analyzed by LGC Genomics GmbH [Ostendstraße 25, 12459 Berlin] using primer pair 341 F, Seq. ID NO 1, and […], Seq. ID NO 2, or library preparation and […] MiSeq for sequencing. Results are processed by LGC Genomics GmbH and mapped to an individual reference database containing the sequences of the strains which are present in the individual model. Preculture cultivation, ratio mixing and cultivation is carried out as in example 1 or 2. Test compounds are added to the cultures at T=0, 4, 8, 12, 16, or 24 h. At the end of the cultivation samples are taken and processed as in example 1 or 2 and results are compared to non-treated cultures to evaluate the effect of the test compounds on the core microbiome model.

Experiment [2] shares this test system. The experiment can be described thus: Anaerobic cultivation of core skin microbiome model (ratio 1) with test compound. The conditions noted are these: ratio 1, compound added at T=0, T=22 h. The class given is cell-based. The procedure: Preculture cultivation and ratio mixing is carried out as in example 1. Anaerobic cultivation is done using a BioLector [[…]-labs; Arnold-Sommerfeld-Ring 2, 52499 Baesweiler] small scale test system with MTP-48-BOH 1 plates and the anaerobic module including an external mass flow controller for nitrogen (N2). 100 μl of strain mix, according to the ratios in table 2 are added to 1 ml BHI media resulting in a starting OD600 of 0.091. Cultivation is done at 37° C., a shaking frequency of 600 rpm and under nitrogen flushing for 22 h until the process is stopped. Preculture cultivation, ratio mixing and cultivation is carried out as in example 1 or 2. Test compounds are added to the cultures at T=0, 4, 8, 12, 16, or 24 h. At the end of the cultivation samples are taken and processed as in example 1 or 2 and results are compared to non-treated cultures to evaluate the effect of the test compounds on the core microbiome model.

Turning to sodium lauryl ether sulfate, the “abundance of all other species” value in experiment [1] (species other than S. warneri (and S. capitis for the lysate)) is “at the expense of all other Staphylococcus species”. In addition, in experiment [1] (vs non-treated culture), the “abundance of S. warneri” value is listed as “significantly increased abundance”, the microbial diversity entry was “remarked loss of diversity” and the “shift compared to the baseline composition” value is “drastic microbial community shifts”. In addition, in experiment [2], the “general trends compared with aerobic conditions” value is given as “remain the same”.
Regarding `CN(CC(=O)O)C(=N)N` [Creatine], in experiment [1] (vs non-treated culture), the “relative abundance of S. aureus” value is on record as “slightly decreased”, the “relative abundance of S. epidermidis” value was “slightly increased”, the “relative abundance of S. hominis” value is reported as “slightly increased” and the “shift compared to the baseline composition” value is given as “minor shift”. Further, the “general trends compared with aerobic conditions” value in experiment [2] is reported as “remain the same”.
